Reference: patent US7632807B2, “Cyclosporin alkynes and their utility as pharmaceutical agents” (Albany Molecular Research, Inc., priority 2004, dated 2009)
Values after ≈ are worked out from the molar mass of the structure shown. “Also recorded” adds a separate entry of the source.

What was measured:
[1] = test system: concanavalin A-stimulated murine splenocytes; assay: Concanavalin A (ConA)-stimulated murine splenocyte assay; type: cell-based, mouse (BALB/c)
Procedure: Concanavalin A—Stimulated Splenocyte Assay
Male BALB/c mice, at 5 to 7 weeks of age, were sacrificed by CO2 inhalation. Spleens were removed and dissociated by pushing through a nylon cell strainer. The splenocytes were washed in RPMI 1640/5% fetal calf serum (FCS) and pelleted at 400×g. Red blood cells were then lysed by resuspending the cell pellet in ACK lysis buffer (150 mM NH4Cl, 1 mM KHCO3, 0.1 mM EDTA, 3 mL per spleen) for 10 min at room temperature. After pelleting at 400×g, the cells were washed by resuspending in RPMI 1640/5% FCS and repelleting. The cell pellet was resuspended in RPMI 1640/5% FCS and again passed through a cell strainer to remove cell aggregates. The cells were then counted and adjusted to 2×10^6 cells/ml in RPMI 1640/10% FCS/[…] 2-mercaptoethanol. Cell viability was assessed by Trypan blue staining. […] The cells were cultured in a 37° C. CO2 incubator for 2 days and then pulsed with 1 μCi of [^3H]thymidine for 6 hours. Cells were harvested onto filtermats with a TomTec 96 well plate harvester and lysed with H2O. The filtermat and scintillation fluid were sealed in a plastic sleeve. [^3H]thymidine incorporation was measured with a Wallac Trilux plate counter. Initial screens were done at a fixed value of 100 ng/ml test compound. IC50s were calculated from 7 point concentration-response curves using graphPad software.

[2] = literature value (Rich et al. 1990); cited from earlier work

SMILES | immunosuppressive potency compared to cyclosporin A ([1]; FIG. 1, ConA-stimulated murine splenocyte assay) | IC50 ([1]; novel cyclosporin alkyne analogue, ConA-stimulated BALB/c splenocytes, [3H]thymidine incorporation, 7 point concentration-response curves) [µg/mL] | relative immunosuppressive activity, compared to cyclosporin A [2] [%]
C#CC#CC[C@@H](C)[C@@H](O)[C@H]1C(=O)N[C@@H](CC)C(=O)N(C)CC(=O)N(C)[C@@H](CC(C)C)C(=O)N[C@@H](C(C)C)C(=O)N(C)[C@@H](CC(C)C)C(=O)N[C@@H](C)C(=O)N[C@H](C)C(=O)N(C)[C@@H](CC(C)C)C(=O)N(C)[C@@H](CC(C)C)C(=O)N(C)[C@@H](C(C)C)C(=O)N1C [Example 25, cyclosporine diyne] | enhanced or similar potency in immunosuppression; also recorded: two times more potent over cyclosporin A | 0.012 (≈ 9.91 nM) | –
CC#CC[C@@H](C)[C@@H](O)[C@H]1C(=O)N[C@@H](CC)C(=O)N(C)CC(=O)N(C)[C@@H](CC(C)C)C(=O)N[C@@H](C(C)C)C(=O)N(C)[C@@H](CC(C)C)C(=O)N[C@@H](C)C(=O)N[C@H](C)C(=O)N(C)[C@@H](CC(C)C)C(=O)N(C)[C@@H](CC(C)C)C(=O)N(C)[C@@H](C(C)C)C(=O)N1C [known cyclosporin alkyne] | – | – | 10
